Patent publication US20150266850A1 (E.I.DU PONT DE NEMOURS AND COMPANY, priority 2012, published 2015)
Marks after values point to notes of the source that are not given here.

Columns and labels:
Assay type in all cases: in vivo
Settings in all cases: 40 ppm (*), 100 = 100% disease control
[1] = tested on: Erysiphe graminis f. sp. tritici; experiment: Test A: wheat powdery mildew, preventive spray on wheat seedlings, visual disease rating
Source text: (§1) General protocol for preparing test suspensions for Tests A-E: the test compounds were first dissolved in acetone in an amount equal to 11% of the final volume and then suspended at the desired concentration (in ppm) in acetone and purified water (50/50 mix by volume) containing 250 ppm of the surfactant Trem® 014 (polyhydric alcohol esters). The resulting test suspensions were then used in Tests A-E. Spraying a 200 ppm test suspension to the point of run-off on the test plants was the equivalent of a rate of 800 g/ha.
The test suspension was sprayed to the point of run-off on wheat seedlings. The following day the seedlings were inoculated with a spore dust of Erysiphe graminis f. sp. tritici, (the causal agent of wheat powdery mildew) and incubated in a growth chamber at 20° C. for 8 days, after which time disease ratings were visually made.
(§2) Results for Tests A-E are given in Table A. In the Table, a rating of 100 indicates 100% disease control and a rating of 0 indicates no disease control (relative to the controls). A dash (-) indicates no test results. All results are for 200 ppm except where followed by an “*”, which indicates 40 ppm or “**”, which indicates 50 ppm.

[2] = tested on: Puccinia recondita f sp. tritici; experiment: Test B: wheat leaf rust, preventive spray on wheat seedlings, visual disease rating
Source text: as §1
(§3) The test suspension was sprayed to the point of run-off on wheat seedlings. The following day the seedlings were inoculated with a spore suspension of Puccinia recondita f sp. tritici (the causal agent of wheat leaf rust) and incubated in a saturated atmosphere at 20° C. for 24 h, and then moved to a growth chamber at 20° C. for 7 days, after which time disease ratings were visually made.
as §2

[3] = tested on: Septoria nodorum; experiment: Test D: wheat glume blotch, preventive spray on wheat seedlings, visual disease rating
Source text: as §1
as §3, with “Septoria nodorum” for “Puccinia recondita f sp. tritici”, “glume blotch)” for “leaf rust)”, “48” for “24”
as §2

[4] = tested on: Botrytis cinerea; experiment: Test E: tomato botrytis, preventive spray on tomato seedlings, visual disease rating
Source text: as §1
The test suspension was sprayed to the point of run-off on tomato seedlings. The following day the seedlings were inoculated with a spore suspension of Botrytis cinerea (the causal agent of tomato botrytis) and incubated in saturated atmosphere at 20° C. for 48 h, and then moved to a growth chamber at 27° C. for 3 additional days, after which time disease ratings were visually made.
as §2

[5] = tested on: Septoria tritici; experiment: Test C: wheat leaf blotch, preventive spray on wheat seedlings, visual disease rating
Source text: as §1
The test suspension was sprayed to the point of run-off on wheat seedlings. The following day the seedlings were inoculated with a spore suspension of Septoria tritici (the causal agent of wheat leaf blotch) and incubated in a saturated atmosphere at 24° C. for 48 h, and then moved to a growth chamber at 20° C. for 19 days, after which time disease ratings were visually made.
as §2

SMILES	Test A disease control rating [1]	Test B disease control rating [2]	Test D disease control rating [3]	Test E disease control rating [4]	pest or weed control at 40 ppm ([1]; Blumeria graminis, 192 h)	pest or weed control at 40 ppm ([2]; 192 h)	pest or weed control at 40 ppm ([3]; Parastagonospora nodorum, 216 h)	pest or weed control at 40 ppm ([4]; Botrytis cinerea, 120 h)	Test C disease control rating [5]
CCc1cc(OC)ccc1-c1ccn(-c2ccc(C)c(CNC(=O)OC)c2)n1 [Cmpd 83]	99* %	100* %	100* %	0* %	–	–	–	–	–
COC(=O)NCc1cc(-n2ncc(-c3ccc(C)cc3C)n2)ccc1C [Compound 97]	99* %	100* %	100* %	43* %	–	–	–	–	–
COC(=O)NCc1cc(-n2ncc(-c3ccc(OC)cc3I)n2)ccc1C [Cmpd 96]	99* %	100* %	100* %	70* %	–	–	–	–	–
C#CCOc1cc(OC)ccc1-c1cnn(-c2ccc(C)c(CNC(=O)OC)c2)n1 [Cmpd 74]	98* %	100* %	100* %	8* %	–	–	–	–	–
COC(=O)NCc1cc(-n2ncc(-c3ccc(C)cc3OCC#N)n2)ccc1C [Cmpd 98]	95* %	100* %	100* %	6* %	–	–	–	–	–
COC(=O)NCc1cc(-n2ccc(-c3ccc(OC)cc3C3CC3)n2)ccc1C [Cmpd 82]	99* %	100* %	100* %	0* %	–	–	–	–	–
C#Cc1cc(OC)ccc1-c1cnn(-c2ccc(C)c(CNC(=O)OC)c2)n1 [Cmpd 47]	99* %	100* %	100* %	0* %	–	–	–	–	–
C=CCOc1cc(OC)ccc1-c1cnn(-c2ccc(C)c(CNC(=O)OC)c2)n1 [Cmpd 75]	90* %	100* %	100* %	8* %	–	–	–	–	–
CCOc1cc(OC)ccc1-c1cnn(-c2ccc(C)c(CNC(=O)OC)c2)n1 [Cmpd 88]	100* %	100* %	100* %	0* %	–	–	–	–	–
COC(=O)NCc1cc(-n2ncc(-c3ccc(OC)cc3[N+](=O)[O-])n2)ccc1C [Cmpd 85]	99* %	100* %	100* %	0* %	–	–	–	–	–
COC(=O)NCc1cc(-n2ncc(-c3ccc(OC)cc3OCC#N)n2)ccc1C [Cmpd 73]	99* %	100* %	100* %	0* %	–	–	–	–	–
COC(=O)NCc1cc(-n2ncc(-c3ccc(I)cc3OC)n2)ccc1C [Cmpd 95]	98* %	100* %	100* %	0* %	–	–	–	–	–
COC(=O)NCc1cc(-n2ncc(-c3ccc(OC)cc3I)[n+]2[O-])ccc1C [Compound 94]	–	–	–	–	98%	100%	100%	11%	–
C#Cc1ccc(-c2cnn(-c3ccc(C)c(CNC(=O)OC)c3)n2)c(OC)c1 [Cmpd 99]	99* %	100* %	100* %	14* %	–	–	–	–	–
COC(=O)NCc1cc(-n2ccc(-c3ccc(I)cc3Cl)n2)ccc1C [Cmpd 92]	99* %	100* %	100* %	33* %	–	–	–	–	–
COC(=O)NCc1cc(-n2ncc(-c3ccc(Br)cc3OC)n2)ccc1C [Cmpd 141]	99* %	100* %	100* %	–	–	–	–	–	97* %
